Test results reported in US20230322717A1, “SOLID FORM OF PYRAZINE SUBSTITUTED NICOTINAMIDE, AND PREPARATION AND USE THEREOF” (Shenzhen TargetRx, Inc., priority 2020, published 2023).
Blank lines part the entries; values can stand above or below the molecule they belong to.

Columns and labels:
Type in all cases: physicochemical
[1] = Stability study of the crystal form I of compound A and the crystal form I of compound A p-toluenesulfonate (HPLC, XRPD)
Method: A certain amount of samples of the crystal form I of compound A and the crystal form I of compound A p-toluenesulfonate (Batch No.: PTSA-A1) were placed in a stability test chamber, and kept at 40° C./75%RH and 60° C. for 7 days, respectively. The samples were tested by HPLC and XRPD at various time points.

[2] = Solubility study in SGF, FaSSIF and FeSSIF (HPLC of filtrate, XRPD of solid); conditions: 37° C.; for Crystal form: XRPD of solid
Method: The solubilities of the crystal form I of compound A and the crystal form I of compound A p-toluenesulfonate in SGF (simulated gastric fluid), FaSSIF (fasted state simulated intestinal fluid) and FeSSIF (fed state simulated intestinal fluid) were studied.
The solubilities of samples in SGF, FaSSIF and FeSSIF at 37° C. for 24 hours were determined. 40 mg of the sample was placed in a sample bottle, and 1.5 mL of solvent was added. The mixture was mixed well, and shaken on a shaker at 200 rpm for 24 hours. The suspension was filtered at 0.5, 2 and 24 hours. The filtrate was analyzed by HPLC, and the solid was tested by XRPD.

[3] = Dynamic moisture adsorption and desorption analysis (DVS); conditions: for crystal form after DVS test (XRPD): before and after DVS test; for hygroscopicity (DVS): moisture range 0% to 90%
Method: The instrument model used for dynamic moisture adsorption and desorption analysis was IGA Sorp (Hidentity Isochema). The samples were measured in a gradient mode with a moisture range of 0% to 90%, wherein the humidity increment of each gradient was 10%.

Purity ([1]; 40° C./75% RH, Day 0, HPLC): 97.9% | Purity ([1]; 40° C./75% RH, Day 3, HPLC): 97.9% | Crystal form ([1]; 40° C./75% RH, Day 3, XRPD): Initial crystal form | Purity ([1]; 40° C./75% RH, Day 7, HPLC): 97.9% | Crystal form ([1]; 40° C./75% RH, Day 7, XRPD): Initial crystal form | Purity ([1]; 60° C., Day 0, HPLC): 97.9% | Purity ([1]; 60° C., Day 3, HPLC): 97.9% | Crystal form ([1]; 60° C., Day 3, XRPD): Initial crystal form | Purity ([1]; 60° C., Day 7, HPLC): 97.9% | Crystal form ([1]; 60° C., Day 7, XRPD): Initial crystal form | Solubility ([2]; FaSSIF, 0.5 h): 4.5 µg/mL | pH ([2]; FaSSIF, 0.5 h): 6.38 | Crystal form ([2]; FaSSIF, 0.5 h): Changed | Solubility ([2]; FaSSIF, 2 h): 3.7 µg/mL | pH ([2]; FaSSIF, 2 h): 3.48 | Crystal form ([2]; FaSSIF, 2 h): Changed | Solubility ([2]; FaSSIF, 24 h): 16 µg/mL | pH ([2]; FaSSIF, 24 h): 1.91 | Crystal form ([2]; FaSSIF, 24 h): Changed | Solubility ([2]; FeSSIF, 0.5 h): 100 µg/mL | pH ([2]; FeSSIF, 0.5 h): 4.53 | Crystal form ([2]; FeSSIF, 0.5 h): Changed | Solubility ([2]; FeSSIF, 2 h): 93 µg/mL | pH ([2]; FeSSIF, 2 h): 4.51 | Crystal form ([2]; FeSSIF, 2 h): Changed | Solubility ([2]; FeSSIF, 24 h): 180 µg/mL | pH ([2]; FeSSIF, 24 h): 4.50 | Crystal form ([2]; FeSSIF, 24 h): Changed | Solubility ([2]; SGF, 0.5 h): 97 µg/mL | pH ([2]; SGF, 0.5 h): 1.23 | Crystal form ([2]; SGF, 0.5 h): Initial crystal form | Solubility ([2]; SGF, 2 h): 67 µg/mL | pH ([2]; SGF, 2 h): 1.19 | Crystal form ([2]; SGF, 2 h): Initial crystal form | Solubility ([2]; SGF, 24 h): 45 µg/mL | pH ([2]; SGF, 24 h): 1.18 | Crystal form ([2]; SGF, 24 h): Changed
Structure (SMILES): Cc1ccc(S(=O)(=O)O)cc1.O=C(Nc1ccc(OC(F)(F)Cl)cc1)c1cnc(N2CC[C@@H](F)C2)c(-c2cnccn2)c1

water absorption ([3]; 0-60%RH): about 0.4% | water absorption ([3]; 0-90%RH): about 1.5% | crystal form after DVS test (XRPD) [3]: not changed | hygroscopicity (DVS) [3]: slightly hygroscopic
Structure (SMILES): O=C(Nc1ccc(OC(F)(F)Cl)cc1)c1cnc(N2CC[C@@H](F)C2)c(-c2cnccn2)c1.O=S(=O)(O)c1ccccc1 [(R)-N-(4-(chlorodifluoromethoxy)phenyl)-6-(3-fluoropyrrolidin-1-yl)-5-(pyrazin-2-yl)nicotinamide benzenesulfonate]

water absorption ([3]; 0-80%RH): about 0.67% | crystal form after DVS test (XRPD) [3]: not changed | hygroscopicity (DVS) [3]: slightly hygroscopic
Structure (SMILES): Br.O=C(Nc1ccc(OC(F)(F)Cl)cc1)c1cnc(N2CC[C@@H](F)C2)c(-c2cnccn2)c1 [(R)-N-(4-(chlorodifluoromethoxy)phenyl)-6-(3-fluoropyrrolidin-1-yl)-5-(pyrazin-2-yl)nicotinamide hydrobromide]

water absorption ([3]; 0-40%RH (relative humidity)): about 0.4% | water absorption ([3]; 0-90%RH): about 2.8% | crystal form after DVS test (XRPD) [3]: not changed | hygroscopicity (DVS) [3]: slightly hygroscopic
Structure (SMILES): Cl.O=C(Nc1ccc(OC(F)(F)Cl)cc1)c1cnc(N2CC[C@@H](F)C2)c(-c2cnccn2)c1 [(R)-N-(4-(chlorodifluoromethoxy)phenyl)-6-(3-fluoropyrrolidin-1-yl)-5-(pyrazin-2-yl)nicotinamide hydrochloride]
